Assay results as given in paper PMC12345137 (mBio, 2025).
Entries after “also recorded” stand apart in the source; their conditions may differ. Like-named read-outs stand apart in the source and are kept apart here. Positions of bridges follow the written chain, without caps; N, C: chain ends. Residues, ends and D or L forms follow the SMILES beside them.

Tests used:
S. aureus (SA) agr-III = settings: fluorescence, cited from earlier work
S. epidermidis agr-I = S. epidermidis agr-I (Staphylococcus epidermidis, UniProt Q5HMY3); test: cell-based; assay type: cell-based; settings: for QS interaction in words (inhibition / activation), S. epidermidis agr-I: fluorescent reporter strain, peptides tested at 1000, 50, 2.5, 0.125 nM or in dose-response
S. epidermidis agr-I, sequence (Q5HMY3 entry or part of it): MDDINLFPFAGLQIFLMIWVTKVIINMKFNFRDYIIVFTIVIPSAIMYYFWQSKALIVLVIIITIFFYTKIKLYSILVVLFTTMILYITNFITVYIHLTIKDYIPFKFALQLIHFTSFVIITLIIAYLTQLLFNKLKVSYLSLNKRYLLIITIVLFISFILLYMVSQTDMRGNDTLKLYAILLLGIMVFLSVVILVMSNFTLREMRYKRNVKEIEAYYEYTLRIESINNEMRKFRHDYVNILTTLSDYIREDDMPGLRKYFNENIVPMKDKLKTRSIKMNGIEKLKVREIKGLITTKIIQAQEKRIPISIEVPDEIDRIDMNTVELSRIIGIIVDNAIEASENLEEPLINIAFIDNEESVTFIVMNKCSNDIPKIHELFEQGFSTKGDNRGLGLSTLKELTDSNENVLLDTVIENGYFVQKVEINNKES
Protocol: (§1) Peptides were evaluated for the ability to interfere with agr-mediated quorum sensing in S. aureus (AH1677, AH430, AH1747, and AH1872 for agr-I–IV, respectively) ([40]) using reporter strains expressing yellow fluorescent protein (YFP) upon agr activation. Interference with agr-mediated quorum sensing in S. epidermidis (AH3408, AH3623, and AH3409 for agr-I–III, respectively) ([45]), and S. lugdunensis (AH4031 for agr-I) ([37]) was evaluated using reporter strains expressing superfolder green fluorescent protein (sGFP) upon agr activation. Overnight cultures of the reporter strains were grown in TSB medium containing chloramphenicol (CAM, 10 μg/mL for S. aureus) or erythromycin (ERM, 10 μg/mL of S. epidermidis and S. lugdunensis) and diluted 1:100 in fresh TSB medium containing the same antibiotic. Assays were performed in sterile black 96-well plates with a clear bottom. […] DMSO stock solutions of peptides (1 mM) were diluted in TSB media and added (15 μL) in technical triplicate to the 96-well plate, followed by diluted bacterial overnight cultures (135 μL). […] Wells containing 150 μL TSB medium were used to measure background fluorescence. The 96-well plates were incubated in a humidified incubator at 37°C shaking at 1,000 rpm for 22–24 h and fluorescence (for GFP: excitation 479 nm, emission 520 nm; for YFP: excitation 500 nm, emission 541 nm; automatic gain), and OD600 values were subsequently measured using a plate reader. Background fluorescence was subtracted from all wells and further normalized to the corresponding OD600 value of the respective wells. The average fluorescence of control wells was used as a relative measure for 100% activation of the agr-circuit, and bar graphs were generated using GraphPad Prism 10.4 software. All assays were performed in at least a biological duplicate.
(§2) Overnight cultures of the reporter strains were grown in TSB medium containing chloramphenicol (CAM, 10 μg/mL for S. aureus) or erythromycin (ERM, 10 μg/mL of S. epidermidis and S. lugdunensis) and diluted 1:100 in fresh TSB medium containing the same antibiotic. Assays were performed in sterile black 96-well plates with clear bottoms. Peptide solutions (15 μL) in 1:5 serial dilutions from DMSO stock solutions (1 mM) in TSB medium were added to the 96-well plate in technical duplicate followed by diluted bacterial overnight cultures (135 μL). […] Wells containing 150 μL TSB medium were used to measure background fluorescence. The 96-well plates were incubated in a humidified incubator at 37°C shaking at 1,000 rpm for 22–24 h and fluorescence (for GFP: excitation 479 nm, emission 520 nm; for YFP: excitation 500 nm, emission 541 nm; automatic gain), and OD600 values were subsequently measured using a plate reader. Background fluorescence was subtracted from all wells and further normalized to the corresponding OD600 value of the respective wells. The average fluorescence of control wells was used as a relative measure for 100% activation of the agr-circuit. Relative agr activity was plotted to obtain IC50 values by non-linear regression with variable slope using GraphPad Prism 10.4 software. All assays were performed in biological triplicate.

S. lugdunensis agr-I = S. lugdunensis agr-I (Staphylococcus lugdunensis, UniProt Q8VSW5); test: cell-based; settings: for QS interaction in words (inhibition / activation), S. lugdunensis agr-I: fluorescent reporter strain, peptides tested at 1000, 50, 2.5, 0.125 nM or in dose-response
S. lugdunensis agr-I, sequence (Q8VSW5 entry or part of it): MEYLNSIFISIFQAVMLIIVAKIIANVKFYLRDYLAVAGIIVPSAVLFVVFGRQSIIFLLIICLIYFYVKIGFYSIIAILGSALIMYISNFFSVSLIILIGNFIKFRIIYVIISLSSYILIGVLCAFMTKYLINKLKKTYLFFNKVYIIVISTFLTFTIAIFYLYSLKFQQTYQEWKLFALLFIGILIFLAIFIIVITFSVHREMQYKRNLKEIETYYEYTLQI
In short: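 37°C, 1,000 rpm, 22–24 h in TSB + CAM or ERM (10 μg/mL); 1:5 serial peptide dilutions from 1 mM DMSO stocks; fluorescence (GFP ex 479/em 520, YFP ex 500/em 541) minus blank, ÷OD600, % of untreated control; IC50 by variable-slope fit.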

S. aureus agr-II = S. aureus agr-II (Staphylococcus aureus, UniProt O33587); test: cell-based
S. aureus agr-II, sequence (O33587 entry or part of it): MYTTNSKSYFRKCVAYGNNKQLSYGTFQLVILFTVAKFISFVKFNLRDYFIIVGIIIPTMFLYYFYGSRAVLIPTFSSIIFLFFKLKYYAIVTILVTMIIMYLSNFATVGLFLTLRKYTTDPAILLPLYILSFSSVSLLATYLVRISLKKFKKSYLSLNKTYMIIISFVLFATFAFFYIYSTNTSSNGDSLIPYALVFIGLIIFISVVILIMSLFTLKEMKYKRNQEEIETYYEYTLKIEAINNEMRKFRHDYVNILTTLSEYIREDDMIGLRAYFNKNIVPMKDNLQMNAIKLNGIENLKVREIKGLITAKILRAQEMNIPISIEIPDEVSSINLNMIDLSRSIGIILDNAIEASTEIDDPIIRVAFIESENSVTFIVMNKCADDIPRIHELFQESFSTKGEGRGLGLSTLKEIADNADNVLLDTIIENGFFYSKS
In short: (§3)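 Reporter strains, with YFP (S. aureus) or sGFP (S. epidermidis) under agr P3, were diluted 1:100 from overnight TSB cultures with antibiotic and exposed to peptides for 22–24 h at 37°C, shaking. Background-subtracted fluorescence was normalized to OD600 and expressed relative to peptide-free control wells; IC50 came from variable-slope non-linear regression.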

S. aureus agr-III = S. aureus agr-III (Staphylococcus aureus, UniProt O33590); test: cell-based
S. aureus agr-III, sequence (O33590 entry or part of it): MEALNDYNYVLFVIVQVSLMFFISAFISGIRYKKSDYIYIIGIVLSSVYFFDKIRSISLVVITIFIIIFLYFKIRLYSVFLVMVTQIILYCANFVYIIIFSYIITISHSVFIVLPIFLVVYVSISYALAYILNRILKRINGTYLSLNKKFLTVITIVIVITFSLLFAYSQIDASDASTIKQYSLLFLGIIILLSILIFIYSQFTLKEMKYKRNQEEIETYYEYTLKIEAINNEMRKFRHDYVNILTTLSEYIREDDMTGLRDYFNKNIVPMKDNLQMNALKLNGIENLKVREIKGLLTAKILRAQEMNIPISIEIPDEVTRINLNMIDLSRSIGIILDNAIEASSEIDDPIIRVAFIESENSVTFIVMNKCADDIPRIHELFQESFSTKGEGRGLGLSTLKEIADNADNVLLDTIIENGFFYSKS
In short: as §3

S. aureus (SA) agr-I = settings: fluorescence, cited from earlier work
S. aureus agr-I = S. aureus agr-I (Staphylococcus aureus, UniProt O07911); test: Fluorescence reporter assay for agr interference, screening and IC50 (AH1677, P3-YFP); assay type: cell-based
S. aureus agr-I, sequence (O07911 entry or part of it): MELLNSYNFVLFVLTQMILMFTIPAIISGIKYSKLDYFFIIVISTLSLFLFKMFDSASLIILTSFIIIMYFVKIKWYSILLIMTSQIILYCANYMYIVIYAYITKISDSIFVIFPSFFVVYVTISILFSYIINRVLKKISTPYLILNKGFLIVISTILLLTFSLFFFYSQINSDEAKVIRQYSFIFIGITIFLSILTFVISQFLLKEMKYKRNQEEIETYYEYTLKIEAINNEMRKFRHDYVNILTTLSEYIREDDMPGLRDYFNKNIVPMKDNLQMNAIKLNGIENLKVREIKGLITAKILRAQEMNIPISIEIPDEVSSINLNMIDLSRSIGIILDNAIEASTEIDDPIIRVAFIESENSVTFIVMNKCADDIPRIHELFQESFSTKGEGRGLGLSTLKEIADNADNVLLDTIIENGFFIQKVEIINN
Protocol: as §1, §2

[1] = fluorescent reporter strain, peptides tested at 1000, 50, 2.5, 0.125 nM or in dose-response

| Compound | IC50 (S. aureus (SA) agr-III; ref (5)) [nM] | IC50 (S. epidermidis agr-I) [nM] | IC50 (S. lugdunensis agr-I) [nM] | IC50 (S. aureus agr-II) [nM] | IC50 (S. aureus agr-III) [nM] | IC50 (S. aureus (SA) agr-III; ref (17)) [nM] | IC50 (S. aureus (SA) agr-I; ref (17)) [nM] | IC50 (S. aureus agr-I) [nM] | QS interaction in words (inhibition / activation), S. epidermidis agr-I (S. epidermidis agr-I) | QS interaction in words (inhibition / activation), S. aureus agr-I (S. aureus agr-I; [1]) | QS interaction in words (inhibition / activation), S. lugdunensis agr-I (S. lugdunensis agr-I) | QS interaction in words (inhibition / activation), S. aureus agr-II (S. aureus agr-II; [1]) | QS interaction in words (inhibition / activation), S. aureus agr-III (S. aureus agr-III; [1]) | IC50 fold lower compared with the most potent, previously reported inhibitors of S. lugdunensis (S. lugdunensis agr-I; S. lugdunensis agr-I, comparison with [37]) [fold] | IC50 (S. aureus (SA) agr-I; ref (5)) [nM] |
| --- | --- | --- | --- | --- | --- | --- | --- | --- | --- | --- | --- | --- | --- | --- | --- |
| CC[C@H](C)[C@@H]1NC(=O)[C@H](Cc2ccccc2)NC(=O)[C@H](CC(=O)O)NC(=O)[C@@H](NC(=O)[C@@H](NC(=O)[C@H](CO)NC(=O)[C@@H](N)Cc2ccc(O)cc2)[C@@H](C)O)CSC(=O)[C@H](CCSC)NC1=O [compound 1, S. aureus AIP-I] (H-YSTCDFIM; thioester 4-C) | 0.53 | > 1000 | > 1000 | 5.8 ± 0.7 | 0.91 | – | – | – | – | – | – | – | – | – | – |
| CC(C)C[C@@H]1NC(=O)[C@@H](NC(=O)[C@@H]2CCCN2C(=O)[C@H](CC(N)=O)NC(=O)[C@H](Cc2ccc(O)cc2)NC(=O)[C@@H](N)CCCCN)CSC(=O)[C@H](CC(C)C)NC(=O)[C@H](Cc2ccccc2)NC(=O)CNC1=O [compound 32, S. simulans AIP-I] (H-KYNPCLGFL; thioester 5-C; N-terminus assumed) | – | 0.74 ± 0.01 | 113 ± 11 | 0.31 ± 0.01 | 0.53 ± 0.02 | 3.5 | 2.2 | 0.34 ± 0.02 | – | – | – | – | – | – | – |
| NCCCC[C@H](N)C(=O)N[C@@H](Cc1ccc(O)cc1)C(=O)N[C@@H](Cc1ccc(O)cc1)C(=O)N1CCC[C@H]1C(=O)N[C@H]1CSC(=O)[C@H](Cc2ccccc2)NC(=O)[C@H](Cc2ccc(O)cc2)NC(=O)CNC(=O)[C@H](Cc2c[nH]c3ccccc23)NC1=O [compound 33, S. simulans AIP-II] (H-KYYPCWGYF; thioester 5-C) | – | 0.31 ± 0.06 | 1.2 ± 0.2 | 0.8 ± 0.2 | 2.8 ± 0.3 | 11.5 | 1.6 | 0.45 | inhibited | inhibited | inhibited; also recorded: sub- or low-nanomolar potencies | inhibited | inhibited | – | – |
| NCCCC[C@H](N)C(=O)N[C@@H](Cc1ccc(O)cc1)C(=O)N[C@@H](CC(N)=O)C(=O)N1CCC[C@H]1C(=O)N[C@H]1CSC(=O)[C@H](Cc2ccccc2)NC(=O)[C@H](Cc2ccc(O)cc2)NC(=O)CNC(=O)[C@H](Cc2c[nH]c3ccccc23)NC1=O [compound 34, S. simulans AIP-III] (H-KYNPCWGYF; thioester 5-C) | – | 0.14 ± 0.03 | 0.48 | 0.22 ± 0.06 | 0.59 ± 0.04 | 3.2 | 1.7 | 0.18 ± 0.03 | – | – | sub- or low-nanomolar potencies | – | – | 400 | – |
| S. aureus AIP-III D4A [compound 57, reference compound] | 0.051 | – | – | – | – | – | – | – | weak interference | – | weak interference | – | – | – | 0.49 |
